Measurements from patent US20050079495A1, “Modified tachykinin receptors” (priority 2000, published 2005).

Columns and labels:
[1] = test system: functional G-protein Ca^2+ linked pathway; experiment: Fura-2 calcium imaging, UTP challenge of COS-7 cells; format: cell-based, monkey; conditions: UTP 3μM, 1 min
Experimental: Coverslips containing cells were prepared and maintained as described. Cultured cells were washed twice in a Krebs-Hepes extra-cellular medium buffer (EM, composition in mM: NaCl 118, KCl 4.7, MgSO4 1.2, CaCl2 1.2, KH2PO4 1.2, Hepes 10, glucose 11 and BSA 0.1%, (pH 7.2 at 20° C., (Rossant, et al Endocrinology, 140, 1525-1536), and then loaded with Fura-2 (Rossant, et al Endocrinology, 140, 1525-1536) by incubation for 3 h at 20° C. with EM containing Fura-2-AM (2 μM, Molecular Probes). This procedure enables the cells to load with Fura-2-AM, which becomes hydrolysed to the free acid form once inside the intact cells. After loading, coverslips were mounted into imaging chambers and perfused with EM to remove extra-cellular Fura-2-AM and to allow hydrolysis of intracellular Fura-2-AM to occur. Measurements of changes in the free [Ca^2+]i in individual cells were made from the fluorescence ratio (excitations 340 nm/380 nm, emission >510 nm) using a Spectral Wizard monochromator, cooled integrating CCD camera and a dedicated suite of software (Merlin, Life Sciences Resources, Cambridge, UK). Data are expressed as ratio units 340/380.
Genes encoding wild type sense, wild type anti-sense and variant NK-1 receptors described above were transiently transfected into COS-7 (monkey kidney) cell lines.

[2] = test system: wild type anti-sense transfected COS-7 cells; experiment: Fura-2 calcium imaging, COS-7 cells transfected with wild type anti-sense construct (negative control); format: cell-based, monkey; conditions: COS-7 cells expressing wild type anti-sense, substance P 1 nM
Experimental: The resulting cDNA was excised from the parental vector, spliced into a mammalian expression vector, pCMV3.1 (Invitrogen). This cDNA was in an orientation which allowed expression of the hNK-1vR polypeptide. Stock plasmid was prepared by amplification in E. coli and the plasmid DNA subsequently purified using a Qiagen endonuclease free DNA preparation kit, and the fidelity of the construct confirmed by DNA sequencing. The nucleic acid sequence of the cDNA is SEQ ID N^o6 (FIG. 2) and the translated protein sequence is SEQ ID N^o5 (FIG. 1). Similarly control (negative control) constructs were prepared whereby wild type and variant HNK-1R cDNA was spliced into the vector in an opposite configuration to that described above. A further control (positive control) was prepared by ligation of the parental wild type hNK-1R cDNA into the vector in a manner which would allow hNK-1R polypeptide to be expressed. […]
Coverslips containing cells were prepared and maintained as described. […] Measurements of changes in the free [Ca^2+]i in individual cells were made from the fluorescence ratio (excitations 340 nm/380 nm, emission >510 nm) using a Spectral Wizard monochromator, cooled integrating CCD camera and a dedicated suite of software (Merlin, Life Sciences Resources, Cambridge, UK). Data are expressed as ratio units 340/380. […]

| Molecule | [Ca^2+]i response to UTP challenge [1] | Ca^2+ response to substance P challenge [2] |
| --- | --- | --- |
| O=c1ccn([C@@H]2O[C@H](COP(=O)(O)OP(=O)(O)OP(=O)(O)O)[C@@H](O)[C@H]2O)c(=O)[nH]1 [UTP] | caused a [Ca^2+]i response | – |
| H-Arg-Pro-Lys-Pro-Gln-Gln-Phe-Phe-Gly-Leu-Met-NH2 [substance P] | – | failed to invoke a Ca^2+ response |
